Laboratory results from patent US7691889B2, “Antimycobacterial compounds” (Lupin Limited, priority 2002, dated 2010).
Converted amounts (≈) assume the structure as drawn.

system: M. tuberculosis clinical isolates, resistant; experiment: microbe, parasite or virus in culture; assay type: cell-based, Mycobacterium tuberculosis; conditions: Mycobacterium tuberculosis, read-out: MIC against Clinical isolates Resistant

| Compound | MIC |
| --- | --- |
| O=C(CCC(=O)c1ccc(Cl)cc1)NC[C@H]1CN(c2ccc(-c3nc[nH]n3)c(F)c2)C(=O)O1 [Compound 49, (S)-N-[[3-(3-fluoro-4-(1,2,4-triazolyl)phenyl)-2-oxo-5-oxazolidinyl]methyl]-4-(4-chlorophenyl)-4-oxobutanamide] | 4 to 16 µg/mL (≈ 8.48 to 33.9 µM) |
| CC(=O)NC[C@H]1CN(c2ccc(N3CCOCC3)c(F)c2)C(=O)O1 [Linezolid, (S)-N-[[3-[3-fluoro-4-(4-morpholinyl)phenyl]-2-oxo-5-oxazolidin-yl]methyl]-acetamide, reference compound] | 1 to 2 µg/mL (≈ 2.96 to 5.93 µM) |
| CCCc1ccc(C(=O)CCC(=O)NC[C@H]2CN(c3ccc(-c4nc[nH]n4)c(F)c3)C(=O)O2)c(C)c1 [Compound 46, (S)-N-[[3-(3-fluoro-4-(1,2,4-triazolyl)phenyl)-2-oxo-5-oxazolidinyl]methyl]-4-(2′-methyl-4-propylphenyl)-4-oxobutanamide] | 2 to 8 µg/mL (≈ 4.05 to 16.2 µM) |
| CC(=O)Nc1ccc(C(=O)CCC(=O)NC[C@H]2CN(c3ccc(-c4nc[nH]n4)c(F)c3)C(=O)O2)cc1 [Compound 50, (S)-N-[[3-(3-fluoro-4-(1,2,4-triazolyl)phenyl)-2-oxo-5-oxazolidinyl]methyl]-4-(4-acetamidophenyl)-4-oxobutanamide] | 2 to 4 µg/mL (≈ 4.04 to 8.09 µM) |
| Cc1ccc(C(=O)CCC(=O)NC[C@H]2CN(c3ccc(-c4nc[nH]n4)c(F)c3)C(=O)O2)c(C)c1 [Compound 43, (S)-N-[[3-(3-fluoro-4-(1,2,4-triazolyl)phenyl)-2-oxo-5-oxazolidinyl]methyl]-4-(2,4-dimethylphenyl)-4-oxobutanamide] | 1 to 2 µg/mL (≈ 2.15 to 4.3 µM) |
| O=C(CCC(=O)c1ccc2ccccc2c1)NC[C@H]1CN(c2ccc(-c3nc[nH]n3)c(F)c2)C(=O)O1 [Compound 48, (S)-N-[[3-(3-fluoro-4-(1,2,4-triazolyl)phenyl)-2-oxo-5-oxazolidinyl]methyl]-4-(2-naphthyl)-4-oxobutanamide] | 2 to 8 µg/mL (≈ 4.1 to 16.4 µM) |
| O=C(CCC(=O)c1cccs1)NC[C@H]1CN(c2ccc(-c3nc[nH]n3)c(F)c2)C(=O)O1 [Compound 47, (S)-N-[[3-(3-fluoro-4-(1,2,4-triazolyl)phenyl)-2-oxo-5-oxazolidinyl]methyl]-4-oxo-4-(2-thienyl)butanamide] | 2 to 4 µg/mL (≈ 4.51 to 9.02 µM) |

same assay, conditions: Table I; agar dilution

| Compound | MIC against Clinical isolates Resistant |
| --- | --- |
| (S)-N-[[3-(3-fluoro-4-morpholinylphenyl)-2-oxo-5-oxazolidinyl]methyl]-4-[4-(2′,2′-dimethyl-4-ethylphenyl)-4-oxobutanamide [Compound 20] | 2 to 4 µg/mL |
| Cc1ccc(C(=S)CCC(=O)NC[C@H]2CN(c3ccc(N4CCOCC4)c(F)c3)C(=O)O2)cc1 [Compound 15, (S)-N-[[3-(3-fluoro-4-morpholinylphenyl)-2-oxo-5-oxazolidinyl]methyl]-4-(4-methylphenyl)-4-thiooxobutanamide] | >16 µg/mL |
| O=C(CCC(=O)c1ccccc1)NC[C@H]1CN(c2ccc(N3CCOCC3)c(F)c2)C(=O)O1 [Compound 1, (S)-N-[[3-(3-fluoro-4-morpholinylphenyl)-2-oxo-5-oxazolidinyl]methyl]-4-oxo-4-phenylbutanamide] | >16 µg/mL |
| O=C(CCC(=O)c1ccccc1)NC[C@H]1CN(c2ccc(N3CCSCC3)c(F)c2)C(=O)O1 [Compound 8, (S)-N-[[3-(3-fluoro-4-thiomorpholinylphenyl)-2-oxo-5-oxazolidinyl]methyl]-4-oxo-4-phenylbutanamide] | 2 to 4 µg/mL |
| O=C(CCC(=O)c1ccc(Cl)cc1)NC[C@H]1CN(c2ccc(-n3nnc4ccccc43)c(F)c2)C(=O)O1 [Compound 39, (S)-N-[[3-(3-fluoro-4-benzotriazolylphenyl)-2-oxo-5-oxazolidinyl]methyl]-4-(4-chlorophenyl)-4-oxobutanamide] | 2 to 8 µg/mL |
| O=C(CCC(=O)c1ccc2ccccc2c1)NC[C@H]1CN(c2ccc(N3CCCC3)c(F)c2)C(=O)O1 [Compound 57, (S)-N-[[3-(3-fluoro-4-pyrrolidinylphenyl)-2-oxo-5-oxazolidinyl]methyl]-4-(2-naphthyl)-4-oxobutanamide] | >16 µg/mL |
| CC(C)Cc1ccc(C(=O)CCC(=O)NC[C@H]2CN(c3ccc(N4CCOCC4)c(F)c3)C(=O)O2)cc1 [Compound 17] | 0.5 to 1.0 µg/mL |
| O=C(CCC(=O)c1cccs1)NC[C@H]1CN(c2ccc([N+]3([O-])CCOCC3)c(F)c2)C(=O)O1 [Compound 31, (S)-N-[[3-(3-fluoro-4-morpholinylphenyl)-2-oxo-5-oxazolidinyl]methyl]-4-oxo-4-(2-thienyl)butanamide-N-oxide] | 1 to 4 µg/mL |
| O=C(C=CC(=O)c1ccccc1)NC[C@H]1CN(c2ccc(N3CCOCC3)c(F)c2)C(=O)O1 [Compound 34, (S)-N-[[3-(3-fluoro-4-morpholinylphenyl)-2-oxo-5-oxazolidinyl]methyl]-4-oxo-4-phenylbut-2-enamide] | >16 µg/mL |
| CC(=O)Nc1ccc(C(=O)CCC(=O)NC[C@H]2CN(c3ccc(N4CCCCC4)c(F)c3)C(=O)O2)cc1 [Compound 54, (S)-N-[[3-(3-fluoro-4-piperidylphenyl)-2-oxo-5-oxazolidinyl]methyl]-4-(4-acetamidophenyl)-4-oxobutanamide] | >16 µg/mL |
| O=C(CCC(=O)c1ccc2ccccc2c1)NC[C@H]1CN(c2ccc(N3CCOCC3)c(F)c2)C(=O)O1 [Compound 16, (S)-N-[[3-(3-fluoro-4-morpholinylphenyl)-2-oxo-5-oxazolidinyl]methyl]-4-(4-2-naphthyl)-4-oxobutanamide] | 0.5(>16) μg/ml |
| O=C(CCC(=O)c1ccc2ccccc2c1)NC[C@H]1CN(c2ccc([N+]3([O-])CCOCC3)c(F)c2)C(=O)O1 [Compound 30, (S)-N-[[3-(3-fluoro-4-morpholinylphenyl)-2-oxo-5-oxazolidinyl]methyl]-4-(4-2-naphthyl)-4-oxobutanamide-N-oxide] | 0.5 to 2 µg/mL |
| CSc1ccc(C(=O)CCC(=O)NC[C@H]2CN(c3ccc(N4CCCC4)c(F)c3)C(=O)O2)cc1 [Compound 56, (S)-N-[[3-(3-fluoro-4-pyrrolidinylphenyl)-2-oxo-5-oxazolidinyl]methyl]-4-oxo-4-(4-thiomethylphenyl)butanamide] | >16 µg/mL |
| CSc1ccc(C(=O)CCC(=O)NC[C@H]2CN(c3ccc(N4CCOCC4)c(F)c3)C(=O)O2)cc1 [Compound 21, (S)-N-[[3-(3-fluoro-4-morpholinylphenyl)-2-oxo-5-oxazolidinyl]methyl]-4-oxo-4-(4-thiomethyl)phenylbutanamide] | 0.5(>16) μg/ml |
| (S)-N-[[3-(3-fluoro-4-(1,2,4-triazolyl)phenyl)-2-oxo-5-oxazolidinyl]methyl]-4-(2′,2′-dimethyl-4-ethylphenyl)-4-oxobutanamide [Compound 45] | 2 to 4 µg/mL |
| Cc1ccc(C(=O)CCC(=O)NC[C@H]2CN(c3ccc(N4CCOCC4)c(F)c3)C(=O)O2)cc1 [Compound 2, (S)-N-[[3-(3-fluoro-4-morpholinylphenyl)-2-oxo-5-oxazolidinyl]methyl]-4-(4-methylphenyl)-4-oxobutanamide] | 8 µg/mL (≈ 17 µM) |
| (S)-N-[[3-(3-fluoro-4-(1,2,4-triazolyl)phenyl)-2-oxo-5-oxazolidinyl]methyl]-4-oxo-4-phenylbutanamide [Compound 40] | 1 to 2 µg/mL |
| O=C(CCC(=O)c1cccs1)NC[C@H]1CN(c2ccc(N3CCOCC3)c(F)c2)C(=O)O1 [Compound 19, (S)-N-[[3-(3-fluoro-4-morpholinylphenyl)-2-oxo-5-oxazolidinyl]methyl]-4-oxo-4-(2-thienyl)butanamide] | 2 µg/mL (≈ 4.33 µM) |
| CC(C)Cc1ccc(C(=O)CCC(=O)NC[C@H]2CN(c3ccc([N+]4([O-])CCOCC4)c(F)c3)C(=O)O2)cc1 [Compound 33] | 0.5 to 2 µg/mL |
| O=C(CCC(=O)c1ccc(Cl)cc1)NC[C@H]1CN(c2ccc(N3CCCCC3)c(F)c2)C(=O)O1 [Compound 36, (S)-N-[[3-(3-fluoro-4-piperidylphenyl)-2-oxo-5-oxazolidinyl]methyl]-4-(4-chlorophenyl)-4-oxobutanamide] | 4 to 8 µg/mL |
| Cc1ccc(C(=O)CCC(=O)NC[C@H]2CN(c3ccc(-n4nnc5ccccc54)c(F)c3)C(=O)O2)c(C)c1 [Compound 27, (S)-N-[[3-(3-fluoro-4-benzotriazolylphenyl)-2-oxo-5-oxazolidinyl]methyl]-4-(2,4-dimethylphenyl)-4-oxobutanamide] | >16 µg/mL |
| COc1ccc(C(=O)CCC(=O)NC[C@H]2CN(c3ccc(N4CCCCC4)c(F)c3)C(=O)O2)cc1 [Compound 35, (S)-N-[[3-(3-fluoro-4-piperidylphenyl)-2-oxo-5-oxazolidinyl]methyl]-4-(4-methoxyphenyl)-4-oxobutanamide] | 4 to 8 µg/mL |
| O=C(C=CC(=O)c1ccccc1)NC[C@H]1CN(c2ccc(N3CCCCC3)c(F)c2)C(=O)O1 [Compound 55, (S)-N-[[3-(3-fluoro-4-piperidylphenyl)-2-oxo-5-oxazolidinyl]methyl]-4-oxo-4-phenylbut-2-enamide] | >16 µg/mL |
| COc1ccc(C(=O)CCC(=O)NC[C@H]2CN(c3ccc(N4CCOCC4)c(F)c3)C(=O)O2)cc1 [Compound 13, (S)-N-[[3-(3-fluoro-4-morpholinylphenyl)-2-oxo-5-oxazolidinyl]methyl]-4-(4-methoxyphenyl)-4-oxobutanamide] | 2 to 4 µg/mL |
| O=C(CCC(=O)c1cccs1)NC[C@H]1CN(c2ccc(N3CCCC3)c(F)c2)C(=O)O1 [Compound 28, (S)-N-[[3-(3-fluoro-4-pyrrolidinylphenyl)-2-oxo-5-oxazolidinyl]methyl]-4-oxo-4-(2-thienyl)butanamide] | 2 to 8 µg/mL |
| CSc1ccc(C(=O)CCC(=O)NC[C@H]2CN(c3ccc(-n4cncn4)c(F)c3)C(=O)O2)cc1 [Compound 44, (S)-N-[[3-(3-fluoro-4-(1,2,4-triazolyl)phenyl)-2-oxo-5-oxazolidinyl]methyl]-4-oxo-4-(4-thiomethylphenyl)butanamide] | 1 to 4 µg/mL |

same assay, conditions: Table II

| Compound | MIC M. tuberculosis Resistant |
| --- | --- |
| O=C(CCC(=O)c1ccc2ccccc2c1)NC[C@H]1CN(c2ccc([N+]3([O-])CCOCC3)c(F)c2)C(=O)O1 [Compound 30, (S)-N-[[3-(3-fluoro-4-morpholinylphenyl)-2-oxo-5-oxazolidinyl]methyl]-4-(4-2-naphthyl)-4-oxobutanamide-N-oxide] | 0.50 to 2.0 µg/mL |
